Source: US20080014186A1, “Hla-A24 or Hla-A2 Binding Peptides of Parathyroid Hormone-Related Protein” (GREEN PEPTIDE CO., LTD., priority 2004, published 2008)

Tests used:
[1] = system: PBMCs of HLA-A2^+ healthy donors and prostate cancer patients; test: Assay for peptide-specific CTLs in PBMCs (IFN-γ ELISA, peptide-pulsed T2 cells); format: cell-based, human; conditions: for INF-γ production: T2 cells
[2] = system: IgG in plasma of HLA-A2^+ healthy donors and prostate cancer patients; test: Peptide-specific IgG in plasma by ELISA (HLA-A2-binding PTHrP peptides); set-up: species or system human; conditions: for IgG reactive to the peptide in plasma (difference of OD): 1:100-diluted plasma
Protocol: Peptide-specific IgG levels in the plasma were measured by ELISA, as previously reported. In brief, peptide (20 μg/well)-immobilized plates were blocked with Block Ace (Yukijirushi, Tokyo, Japan) and washed with 0.05% Tween20-PBS, after which 100 μl/well of plasma sample diluted with 0.05% Tween20-Block Ace was added to the plate. After 2 hours incubation at 37° C., the plates were washed and further incubated for 2 hours with a 1:1000-diluted rabbit anti-human IgG (γ-chain-specific) (DAKO, Glostrup, Denmark). The plates were washed, and then 100 μl of 1:100-diluted goat anti-rabbit IgG-conjugated horseradish peroxidase (EnVision, DAKO) was added to each well, and the plates were then incubated at room temperature for 40 min. After the plates were washed once, 100 μl/well of tetramethyl benzidine substrate solution (KPL, Guildford, UK) was added, and the reaction was stopped by the addition of 1 M phosphoric acid. The values are shown as optical density (OD) units/ml, and responses to the HIV peptide were subtracted. IgG reactive to a corresponding PTHrP peptide was judged to be positive when the difference of the OD in 1:100-diluted plasma exceeded 0.05. The results that IgG reactive to either the PTHrP102-111 or the […] peptide was detected in 8 of 10 healthy donors and in 7 of 10 prostate cancers are shown in Table 2 hereinafter.
In a similar way to Example 3, it was examined whether IgGs reactive to peptides of PTHrP 42-51 and PTHrP 59-67 could be detected in the plasma of 10 healthy donors and 10 cancer patients. The cut-off value at 1:100-diluted plasma was ODO.054.

How did the INF-γ production ([1]; HLA-A2^+ healthy donor #1 (A0201)) turn out when YLTQETNKV [PTHrP 103-111] was run?
The INF-γ production was 34 pg/mL.

What about the INF-γ production ([1]; HLA-A2^+ healthy donor #2 (A0201)) of the same sequence?
Its INF-γ production is 217 pg/mL.

And the INF-γ production ([1]; HLA-A2^+ healthy donor #3 (A0201))?
The INF-γ production was 9 pg/mL.

What about the INF-γ production ([1]; HLA-A2^+ healthy donor #4 (A0201)) of the same sequence?
The INF-γ production was 0 pg/mL.

What about the INF-γ production ([1]; HLA-A2^+ healthy donor #5 (A0206)) of the same sequence?
The INF-γ production was 0 pg/mL.

And the INF-γ production ([1]; HLA-A2^+ healthy donor #6 (A0206))?
The INF-γ production was 0 pg/mL.

And the INF-γ production ([1]; HLA-A2^+ healthy donor #7 (A0206))?
Its INF-γ production is 0 pg/mL.

What about the INF-γ production ([1]; HLA-A2^+ healthy donor #8 (A0206)) of the same sequence?
Its INF-γ production is 0 pg/mL.

And the INF-γ production ([1]; HLA-A2^+ healthy donor #9 (A0206))?
Its INF-γ production is 0 pg/mL.

And the INF-γ production ([1]; HLA-A2^+ healthy donor #10 (A0207))?
Its INF-γ production is 0 pg/mL.

What about the “Total (donors with significant peptide-specific IFN-γ production / donors tested)” value ([1]; HLA-A2^+ healthy donors, p < 0.05) of the same sequence?
Its value is 1/10.

And the INF-γ production ([1]; HLA-A2^+ prostate cancer patient #1 (A0206))?
Its INF-γ production is 144 pg/mL.

And the INF-γ production ([1]; HLA-A2^+ prostate cancer patient #2 (A0210))?
The INF-γ production was 41 pg/mL.

And the INF-γ production ([1]; HLA-A2^+ prostate cancer patient #3 (A0210))?
Its INF-γ production is 57 pg/mL.

What about the INF-γ production ([1]; HLA-A2^+ prostate cancer patient #4 (A0206)) of the same sequence?
Its INF-γ production is 86 pg/mL.

What about the INF-γ production ([1]; HLA-A2^+ prostate cancer patient #5 (A0206)) of the same sequence?
Its INF-γ production is 0 pg/mL.

What about the INF-γ production ([1]; HLA-A2^+ prostate cancer patient #6 (A0207)) of the same sequence?
Its INF-γ production is 68 pg/mL.

What about the INF-γ production ([1]; HLA-A2^+ prostate cancer patient #7 (A0206)) of the same sequence?
The INF-γ production was 49 pg/mL.

What about the INF-γ production ([1]; HLA-A2^+ prostate cancer patient #8 (A0206)) of the same sequence?
The INF-γ production was 29 pg/mL.

And the INF-γ production ([1]; HLA-A2^+ prostate cancer patient #9 (A0201))?
Its INF-γ production is 56 pg/mL.

And the INF-γ production ([1]; HLA-A2^+ prostate cancer patient #10 (A0201))?
Its INF-γ production is 0 pg/mL.

And the “Total (patients with significant peptide-specific IFN-γ production / patients tested)” value ([1]; HLA-A2^+ prostate cancer patients, p < 0.05)?
The value was 1/10.

And the “IgG reactive to the peptide in plasma (difference of OD)” value (“IgG reactive … (difference of OD)” for short) ([2]; HLA-A2^+ healthy donor #1)?
Its value is 0.0745 OD.

And the “IgG reactive … (difference of OD)” value ([2]; HLA-A2^+ healthy donor #2)?
Its value is 0.092 OD.

And the “IgG reactive … (difference of OD)” value ([2]; HLA-A2^+ healthy donor #3)?
The value was “— (IgG reactive to a corresponding peptide was judged to be positive when a difference of OD in a 1:100-diluted plasma was more than 0.054.)”.

What about the “IgG reactive … (difference of OD)” value ([2]; HLA-A2^+ healthy donor #4) of the same sequence?
Its value is 0.128 OD.

And the “IgG reactive … (difference of OD)” value ([2]; HLA-A2^+ healthy donor #5)?
The value was 0.0575 OD.

What about the “IgG reactive … (difference of OD)” value ([2]; HLA-A2^+ healthy donor #6) of the same sequence?
The value was “— (IgG reactive to a corresponding peptide was judged to be positive when a difference of OD in a 1:100-diluted plasma was more than 0.054.)”.

And the “IgG reactive … (difference of OD)” value ([2]; HLA-A2^+ healthy donor #7)?
Its value is “— (IgG reactive to a corresponding peptide was judged to be positive when a difference of OD in a 1:100-diluted plasma was more than 0.054.)”.

What about the “IgG reactive … (difference of OD)” value ([2]; HLA-A2^+ healthy donor #8) of the same sequence?
The value was 0.0585 OD.

And the “IgG reactive … (difference of OD)” value ([2]; HLA-A2^+ healthy donor #9)?
The value was “— (IgG reactive to a corresponding peptide was judged to be positive when a difference of OD in a 1:100-diluted plasma was more than 0.054.)”.

What about the “IgG reactive … (difference of OD)” value ([2]; HLA-A2^+ healthy donor #10) of the same sequence?
The value was “— (IgG reactive to a corresponding peptide was judged to be positive when a difference of OD in a 1:100-diluted plasma was more than 0.054.)”.

What about the “Total (IgG-positive donors / donors tested)” value ([2]; HLA-A2^+ healthy donors) of the same sequence?
The value was 5/10.

And the “IgG reactive … (difference of OD)” value ([2]; HLA-A2^+ prostate cancer patient #1)?
The value was “— (IgG reactive to a corresponding peptide was judged to be positive when a difference of OD in a 1:100-diluted plasma was more than 0.054.)”.

What about the “IgG reactive … (difference of OD)” value ([2]; HLA-A2^+ prostate cancer patient #2) of the same sequence?
The value was “— (IgG reactive to a corresponding peptide was judged to be positive when a difference of OD in a 1:100-diluted plasma was more than 0.054.)”.

And the “IgG reactive … (difference of OD)” value ([2]; HLA-A2^+ prostate cancer patient #3)?
Its value is “— (IgG reactive to a corresponding peptide was judged to be positive when a difference of OD in a 1:100-diluted plasma was more than 0.054.)”.

What about the “IgG reactive … (difference of OD)” value ([2]; HLA-A2^+ prostate cancer patient #4) of the same sequence?
The value was “— (IgG reactive to a corresponding peptide was judged to be positive when a difference of OD in a 1:100-diluted plasma was more than 0.054.)”.

And the “IgG reactive … (difference of OD)” value ([2]; HLA-A2^+ prostate cancer patient #5)?
The value was “— (IgG reactive to a corresponding peptide was judged to be positive when a difference of OD in a 1:100-diluted plasma was more than 0.054.)”.

What about the “IgG reactive … (difference of OD)” value ([2]; HLA-A2^+ prostate cancer patient #6) of the same sequence?
The value was “— (IgG reactive to a corresponding peptide was judged to be positive when a difference of OD in a 1:100-diluted plasma was more than 0.054.)”.

What about the “IgG reactive … (difference of OD)” value ([2]; HLA-A2^+ prostate cancer patient #7) of the same sequence?
Its value is 0.0655 OD.

And the “IgG reactive … (difference of OD)” value ([2]; HLA-A2^+ prostate cancer patient #8)?
The value was “— (IgG reactive to a corresponding peptide was judged to be positive when a difference of OD in a 1:100-diluted plasma was more than 0.054.)”.

What about the “IgG reactive … (difference of OD)” value ([2]; HLA-A2^+ prostate cancer patient #9) of the same sequence?
The value was “— (IgG reactive to a corresponding peptide was judged to be positive when a difference of OD in a 1:100-diluted plasma was more than 0.054.)”.

What about the “IgG reactive … (difference of OD)” value ([2]; HLA-A2^+ prostate cancer patient #10) of the same sequence?
The value was 0.112 OD.

And the “Total (IgG-positive patients / patients tested)” value ([2]; HLA-A2^+ prostate cancer patients)?
The value was 2/10.
